The test system of series [1] is Staphylococcus aureus. Briefly: Antibacterial activity against methicillin-resistant Staphylococcus aureus CCARM 3089 assessed as reduction in bacterial growth at 8 uM incubated for 72 hrs in presence of chloramphenicol by spectrophotometry. The series is classed as functional. To be noted: CCARM 3089, 72 h.
The test system of series [2] is Pseudomonas aeruginosa. Briefly: Antibacterial activity against multidrug-resistant Pseudomonas aeruginosa CCARM 2095 assessed as reduction in bacterial growth at 4 uM incubated for 72 hrs in presence of ciprofloxacin by spectrophotometry. The series is classed as functional. To be noted: CCARM 2095, 72 h.
Series [3] deals with Staphylococcus aureus. Briefly: Antibacterial activity against methicillin-resistant Staphylococcus aureus CCARM 3089 assessed as reduction in bacterial growth at 8 uM incubated for 72 hrs in presence of ciprofloxacin by spectrophotometry. To be noted: CCARM 3089, 72 h. The series is classed as functional.
The subject of series [4] is Pseudomonas aeruginosa. Briefly: Antibacterial activity against multidrug-resistant Pseudomonas aeruginosa CCARM 2095 assessed as reduction in bacterial growth at 4 uM incubated for 72 hrs in presence of oxacillin by spectrophotometry. The series is classed as functional. To be noted: CCARM 2095, 72 h.
Series [5] relates to Staphylococcus aureus. The series can be described thus: Antibacterial activity against methicillin-resistant Staphylococcus aureus CCARM 3089 assessed as reduction in bacterial growth at 8 uM incubated for 72 hrs in presence of oxacillin by spectrophotometry. The series is classed as functional. To be noted: CCARM 3089, 72 h.
The test system of series [6] is Bacillus subtilis. Briefly: Antibacterial activity against Bacillus subtilis KCTC 3068 assessed as reduction in bacterial growth incubated for 18 hrs by spectrophotometry based microtiter broth dilution method. To be noted: KCTC 3068, 18 h. The series is classed as functional.
Series [7] has as its system Staphylococcus aureus. The series can be described thus: Antibacterial activity against methicillin-resistant Staphylococcus aureus CCARM 3089 assessed as reduction in bacterial growth at 4 uM incubated for 72 hrs in presence of ciprofloxacin by spectrophotometry. The series is classed as functional. To be noted: CCARM 3089, 72 h.
Series [8] deals with Erythrocyte. The series can be described thus: Hemolytic activity in sheep RBC assessed as minimal hemolytic concentration causing 10% hemolysis incubated for 2 hrs by ELISA. The series is classed as ADME, cell-based, Ovis aries.
Series [9] concerns Staphylococcus aureus. Briefly: Potency index, ratio of MIC of melittin to MIC of compound for antibacterial activity against methicillin-resistant Staphylococcus aureus CCARM 3089 assessed as reduction in bacterial growth incubated for 18 hrs by spectrophotometry based microtiter broth dilution method. Format: functional. Background: Dilution methods test growth across graded concentrations, often in twofold steps.

In series [10] the test system is Salmonella typhimurium. The series can be described thus: Antibacterial activity against Salmonella typhimurium KCTC 1926 assessed as reduction in bacterial growth incubated for 18 hrs by spectrophotometry based microtiter broth dilution method. Format: functional, Salmonella enterica subsp. enterica serovar Typhimurium. To be noted: Salmonella enterica, KCTC 1926, 18 h.

Series [11] deals with Enterococcus faecium. Briefly: Potency index, ratio of MIC of melittin to MIC of compound for antibacterial activity against vancomycin-resistant Enterococcus faecium ATCC 51559 assessed as reduction in bacterial growth incubated for 18 hrs by spectrophotometry based microtiter broth dilution method. Format: functional.
Series [12] has as its system Escherichia coli. Briefly: Antibacterial activity against Escherichia coli KCTC 1682 assessed as reduction in bacterial growth incubated for 18 hrs in presence of 6 uM NH4Cl by spectrophotometry based microtiter broth dilution method. Format: functional. To be noted: KCTC 1682, 18 h.
Series [13] relates to Escherichia coli. Briefly: Antibacterial activity against Escherichia coli KCTC 1682 assessed as reduction in bacterial growth incubated for 18 hrs in presence of 1 mM MgCl2 by spectrophotometry based microtiter broth dilution method. Format: functional. To be noted: KCTC 1682, 18 h.
The subject of series [14] is Staphylococcus aureus. Briefly: Potency index, ratio of MIC of LL-37 to MIC of compound for antibacterial activity against methicillin-resistant Staphylococcus aureus CCARM 3090 assessed as reduction in bacterial growth incubated for 18 hrs by spectrophotometry based microtiter broth dilution method. Format: functional.
Series [15] has as its system Pseudomonas aeruginosa. The series can be described thus: Potency index, ratio of MIC of melittin to MIC of compound for antibacterial activity against multidrug-resistant Pseudomonas aeruginosa CCARM 2095 assessed as reduction in bacterial growth incubated for 18 hrs by spectrophotometry based microtiter broth dilution method. Format: functional.
Series [16] relates to Staphylococcus aureus. The series can be described thus: Antibacterial activity against methicillin-resistant Staphylococcus aureus CCARM 3089 assessed as reduction in bacterial growth at 4 uM incubated for 72 hrs in presence of oxacillin by spectrophotometry. The series is classed as functional. To be noted: CCARM 3089, 72 h.
For series [17], the system named is Staphylococcus aureus. Briefly: Potency index, ratio of MIC of LL-37 to MIC of compound for antibacterial activity against methicillin-resistant Staphylococcus aureus CCARM 3095 assessed as reduction in bacterial growth incubated for 18 hrs by spectrophotometry based microtiter broth dilution method. The series is classed as functional.
The subject of series [18] is Staphylococcus aureus. Briefly: Antibacterial activity against Staphylococcus aureus KCTC 1621 assessed as reduction in bacterial growth incubated for 18 hrs in presence of 150 mM NaCl by spectrophotometry based microtiter broth dilution method. Format: functional. To be noted: KCTC 1621, 18 h.
For series [19], the system named is Staphylococcus aureus. Briefly: Potency index, ratio of MIC of melittin to MIC of compound for antibacterial activity against methicillin-resistant Staphylococcus aureus CCARM 3090 assessed as reduction in bacterial growth incubated for 18 hrs by spectrophotometry based microtiter broth dilution method. Format: functional.
Series [20] has as its system Staphylococcus epidermidis. Briefly: Antibacterial activity against Staphylococcus epidermidis KCTC 1917 assessed as reduction in bacterial growth incubated for 18 hrs by spectrophotometry based microtiter broth dilution method. The series is classed as functional. To be noted: KCTC 1917, 18 h.
The test system of series [21] is RAW264.7. The series can be described thus: Antiinflammatory activity in mouse RAW264.7 cells assessed as reduction in LPS-induced TNFalpha release at 8 uM preincubated for 1 hr followed by LPS-challenge and measured after 6 hrs by ELISA relative to control. The series is classed as functional. (In general: ELISA stands for enzyme-linked immunosorbent assay.)
In series [22] the test system is Staphylococcus aureus. The series can be described thus: Potency index, ratio of MIC of melittin to MIC of compound for antibacterial activity against methicillin-resistant Staphylococcus aureus CCARM 3095 assessed as reduction in bacterial growth incubated for 18 hrs by spectrophotometry based microtiter broth dilution method. The series is classed as functional.

Series [23] relates to Staphylococcus aureus. Briefly: Antibacterial activity against Staphylococcus aureus KCTC 1621 assessed as reduction in bacterial growth incubated for 18 hrs in presence of […] by spectrophotometry based microtiter broth dilution method. Format: functional. To be noted: KCTC 1621, 18 h.
Series [24] deals with Escherichia coli. Briefly: Antibacterial activity against Escherichia coli KCTC 1682 assessed as reduction in bacterial growth incubated for 18 hrs in presence of 4 uM FeCl3 by spectrophotometry based microtiter broth dilution method. Format: functional. To be noted: KCTC 1682, 18 h.
Series [25] deals with RAW264.7. Briefly: Cytotoxicity against mouse RAW264.7 cells assessed as reduction in cell viability at upto 16 uM incubated for 48 hrs by MTT assay. The series is classed as cell-based. To be noted: raw264.7, 48 h. A general note: Formazan colour is commonly taken as a measure of viable cells.
Series [26] deals with Lipopolysaccharide (LPS). The series can be described thus: Displacement of BODIPY-TR-cadaverine from Escherichia coli O111:B4 LPS at 16 uM by fluorescence spectrophotometry relative to control.

As a reminder, the MIC is the least concentration at which growth counts as inhibited. A word on the inhibition: it is the drop in the measured response relative to a control, in per cent.

Take `CC[C@H](C)[C@H](NC(=O)[C@H](CCCCN)NC(=O)[C@H](CCC(=O)O)NC(=O)[C@H](CCCCN)NC(=O)[C@H](CO)NC(=O)[C@H](CCCCN)NC(=O)[C@H](CCCNC(=N)N)NC(=O)[C@H](Cc1ccccc1)NC(=O)[C@H](Cc1ccccc1)NC(=O)[C@H](CC(=O)O)NC(=O)CNC(=O)[C@H](CC(C)C)NC(=O)[C@@H](N)CC(C)C)C(=O)NCC(=O)N[C@@H](CCCCN)C(=O)N[C@@H](CCC(=O)O)C(=O)N[C@@H](Cc1ccccc1)C(=O)N[C@@H](CCCCN)C(=O)N[C@@H](CCCNC(=N)N)C(=O)N[C@H](C(=O)N[C@H](C(=O)N[C@@H](CCC(N)=O)C(=O)N[C@@H](CCCNC(=N)N)C(=O)N[C@H](C(=O)N[C@@H](CCCCN)C(=O)N[C@@H](CC(=O)O)C(=O)N[C@@H](Cc1ccccc1)C(=O)N[C@@H](CC(C)C)C(=O)N[C@@H](CCCNC(=N)N)C(=O)N[C@@H](CC(N)=O)C(=O)N[C@@H](CC(C)C)C(=O)N[C@H](C(=O)N1CCC[C@H]1C(=O)N[C@@H](CCCNC(=N)N)C(=O)N[C@H](C(=O)N[C@@H](CCC(=O)O)C(=O)N[C@@H](CO)C(=O)O)[C@@H](C)O)C(C)C)[C@@H](C)CC)C(C)C)[C@@H](C)CC` [CATHELICIDIN]: the minimal inhibitory concentration (MIC) in series [1] came to 4 µM; in series [2], 2 µM; in series [3], 8 µM; in [4], 4 µM; in series [5] it was 2 µM.
For the compound H-LVIRWVRAGYKLYRAIKKK-NH2, the minimal inhibitory concentration (MIC) in series [6] is 2 µM; in series [7], 0.5 µM; in series [10], 2 µM; in series [12], 4 µM; in series [13], 4 µM; in [16], 1 µM. In addition, the minimum inhibitory concentration (MIC) amounted to 2 µM in series [18], 4 µM in [20], 4 µM in series [23] and 4 µM in series [24]. The MHC10 in series [8] is 105 µM. Moreover, the Ratio in series [9], in [11], in series [14], in series [15], in series [17] and in series [19] was 2 - 8 in each case. Also, the Ratio in series [22] is 2 - 8. Besides, the inhibition at 8 µM in series [21] stood at 75.2%. The Activity result in series [25] was “Non-Toxic”. This compound also had an inhibition in series [26] of 100%.

(Values after ChEMBL document CHEMBL4406836, “The design of a cell-selective fowlicidin-1-derived peptide with both antimicrobial and anti-inflammatory activities” (Eur J Med Chem, 2019).)
